According to the supplement of paper PMC6315032:

Assays:
Assay in all cases: apparent dissociation constant (pKDapp, Kinobeads competition, Cheng-Prusoff corrected) (-log10 M); higher = tighter binding
PIK3C2A = PIK3C2A (UniProt O00443); details: affinity matrix / lysate: Lipid Kinobeads, mixed HeLa/Jurkat/K-562 lysate
TGFBR2 = TGFBR2 (UniProt P37173); details: affinity matrix / lysate: Kinobeads, mixed HEK293/K-562/placenta lysate
EPHA5 = EPHA5 (UniProt P54756); details: affinity matrix / lysate: Kinobeads, mixed HEK293/K-562/placenta lysate
BRSK2 = BRSK2 (UniProt Q8IWQ3); details: affinity matrix / lysate: Kinobeads, mixed HEK293/K-562/placenta lysate
PIK3C3 = PIK3C3 (UniProt Q8NEB9); details: affinity matrix / lysate: Lipid Kinobeads, mixed HeLa/Jurkat/K-562 lysate
PLK1 = PLK1 (UniProt P53350); details: affinity matrix / lysate: Kinobeads, mixed HEK293/K-562/placenta lysate
PLK4 = PLK4 (UniProt O00444); details: affinity matrix / lysate: Kinobeads, mixed HEK293/K-562/placenta lysate
AXL = AXL (UniProt P30530); details: affinity matrix / lysate: Kinobeads, mixed HEK293/K-562/placenta lysate
MARK2 = MARK2 (UniProt Q7KZI7); details: affinity matrix / lysate: Kinobeads, mixed HEK293/K-562/placenta lysate
BRSK1 = BRSK1 (UniProt Q8TDC3); details: affinity matrix / lysate: Kinobeads, mixed HEK293/K-562/placenta lysate
FYN = FYN (UniProt P06241); details: affinity matrix / lysate: Kinobeads, mixed HEK293/K-562/placenta lysate
PRKCI = PRKCI (UniProt P41743); details: affinity matrix / lysate: Kinobeads, mixed HEK293/K-562/placenta lysate
CSNK1E = CSNK1E (UniProt P49674); details: affinity matrix / lysate: Kinobeads, mixed HEK293/K-562/placenta lysate
FER = FER (UniProt P16591); details: affinity matrix / lysate: Kinobeads, mixed HEK293/K-562/placenta lysate
MAPK8 = MAPK8 (UniProt P45983); details: affinity matrix / lysate: Kinobeads, mixed HEK293/K-562/placenta lysate
PRKDC = PRKDC (UniProt P78527); details: affinity matrix / lysate: Lipid Kinobeads, mixed HeLa/Jurkat/K-562 lysate
PIM3 = PIM3 (UniProt Q86V86); details: affinity matrix / lysate: Kinobeads, mixed HEK293/K-562/placenta lysate
HIPK1 = HIPK1 (UniProt Q86Z02); details: affinity matrix / lysate: Kinobeads, mixed HEK293/K-562/placenta lysate
BMPR1A = BMPR1A (UniProt P36894); details: affinity matrix / lysate: Kinobeads, mixed HEK293/K-562/placenta lysate
MAPK1 = MAPK1 (UniProt P28482); details: affinity matrix / lysate: Kinobeads, mixed HEK293/K-562/placenta lysate
RPS6KA1 = RPS6KA1 (UniProt Q15418); details: affinity matrix / lysate: Kinobeads, mixed HEK293/K-562/placenta lysate
ULK1 = ULK1 (UniProt O75385); details: affinity matrix / lysate: Kinobeads, mixed HEK293/K-562/placenta lysate
STK17A = STK17A (UniProt Q9UEE5); details: affinity matrix / lysate: Kinobeads, mixed HEK293/K-562/placenta lysate
STK38 = STK38 (UniProt Q15208); details: affinity matrix / lysate: Kinobeads, mixed HEK293/K-562/placenta lysate
EIF2AK1 = EIF2AK1 (UniProt Q9BQI3); details: affinity matrix / lysate: Kinobeads, mixed HEK293/K-562/placenta lysate
GSK3B = GSK3B (UniProt P49841); details: affinity matrix / lysate: Kinobeads, mixed HEK293/K-562/placenta lysate
CRKRS = CRKRS (UniProt Q9NYV4); details: affinity matrix / lysate: Kinobeads, mixed HEK293/K-562/placenta lysate
SIK2 = SIK2 (UniProt Q9H0K1); details: affinity matrix / lysate: Kinobeads, mixed HEK293/K-562/placenta lysate
MELK = MELK (UniProt Q14680); details: affinity matrix / lysate: Kinobeads, mixed HEK293/K-562/placenta lysate
PIM2 = PIM2 (UniProt Q9P1W9); details: affinity matrix / lysate: Kinobeads, mixed HEK293/K-562/placenta lysate
MAP3K3 = MAP3K3 (UniProt Q99759); details: affinity matrix / lysate: Kinobeads, mixed HEK293/K-562/placenta lysate
PRKCD = PRKCD (UniProt Q05655); details: affinity matrix / lysate: Kinobeads, mixed HEK293/K-562/placenta lysate
DDR1 = DDR1 (UniProt Q08345); details: affinity matrix / lysate: Kinobeads, mixed HEK293/K-562/placenta lysate

ULK1, sequence (O75385 whole entry): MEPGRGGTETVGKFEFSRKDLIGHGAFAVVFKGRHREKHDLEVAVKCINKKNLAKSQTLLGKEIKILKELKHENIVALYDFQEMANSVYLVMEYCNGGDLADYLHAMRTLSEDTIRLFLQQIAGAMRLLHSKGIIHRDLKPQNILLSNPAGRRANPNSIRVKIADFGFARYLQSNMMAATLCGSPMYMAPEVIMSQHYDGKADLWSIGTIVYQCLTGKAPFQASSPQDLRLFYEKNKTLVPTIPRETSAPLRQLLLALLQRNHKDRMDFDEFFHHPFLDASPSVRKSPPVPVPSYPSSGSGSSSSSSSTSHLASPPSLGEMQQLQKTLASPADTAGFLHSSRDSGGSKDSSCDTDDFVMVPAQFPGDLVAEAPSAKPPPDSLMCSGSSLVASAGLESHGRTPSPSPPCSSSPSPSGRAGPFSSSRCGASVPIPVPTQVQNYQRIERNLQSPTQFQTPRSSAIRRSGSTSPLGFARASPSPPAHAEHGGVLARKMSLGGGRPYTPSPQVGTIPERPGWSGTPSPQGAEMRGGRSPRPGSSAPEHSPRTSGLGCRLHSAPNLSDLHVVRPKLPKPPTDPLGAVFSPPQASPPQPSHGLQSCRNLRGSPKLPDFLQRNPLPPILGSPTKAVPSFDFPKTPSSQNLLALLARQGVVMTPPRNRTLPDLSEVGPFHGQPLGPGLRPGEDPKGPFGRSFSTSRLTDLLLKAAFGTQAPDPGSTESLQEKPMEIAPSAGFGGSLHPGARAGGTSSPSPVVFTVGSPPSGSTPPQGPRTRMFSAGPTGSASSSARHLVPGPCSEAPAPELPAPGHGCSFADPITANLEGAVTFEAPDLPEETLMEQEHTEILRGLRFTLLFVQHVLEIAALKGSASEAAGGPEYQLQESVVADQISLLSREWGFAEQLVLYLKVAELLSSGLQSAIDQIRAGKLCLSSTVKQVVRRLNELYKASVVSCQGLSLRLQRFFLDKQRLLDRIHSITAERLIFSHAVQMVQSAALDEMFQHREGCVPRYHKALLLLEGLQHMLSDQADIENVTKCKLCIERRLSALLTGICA
CSNK1E, sequence (P49674 whole entry, looked up): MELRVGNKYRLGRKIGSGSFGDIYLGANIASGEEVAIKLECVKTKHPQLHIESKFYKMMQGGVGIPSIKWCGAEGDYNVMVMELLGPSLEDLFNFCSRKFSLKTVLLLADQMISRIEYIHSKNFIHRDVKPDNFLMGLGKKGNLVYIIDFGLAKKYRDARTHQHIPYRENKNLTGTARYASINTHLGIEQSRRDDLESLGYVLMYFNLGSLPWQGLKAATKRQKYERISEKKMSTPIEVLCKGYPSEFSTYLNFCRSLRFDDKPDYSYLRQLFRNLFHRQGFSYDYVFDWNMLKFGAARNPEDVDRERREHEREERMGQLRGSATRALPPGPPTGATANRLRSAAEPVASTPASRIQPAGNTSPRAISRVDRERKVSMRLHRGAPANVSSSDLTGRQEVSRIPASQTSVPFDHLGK
PLK4, sequence (O00444 whole entry): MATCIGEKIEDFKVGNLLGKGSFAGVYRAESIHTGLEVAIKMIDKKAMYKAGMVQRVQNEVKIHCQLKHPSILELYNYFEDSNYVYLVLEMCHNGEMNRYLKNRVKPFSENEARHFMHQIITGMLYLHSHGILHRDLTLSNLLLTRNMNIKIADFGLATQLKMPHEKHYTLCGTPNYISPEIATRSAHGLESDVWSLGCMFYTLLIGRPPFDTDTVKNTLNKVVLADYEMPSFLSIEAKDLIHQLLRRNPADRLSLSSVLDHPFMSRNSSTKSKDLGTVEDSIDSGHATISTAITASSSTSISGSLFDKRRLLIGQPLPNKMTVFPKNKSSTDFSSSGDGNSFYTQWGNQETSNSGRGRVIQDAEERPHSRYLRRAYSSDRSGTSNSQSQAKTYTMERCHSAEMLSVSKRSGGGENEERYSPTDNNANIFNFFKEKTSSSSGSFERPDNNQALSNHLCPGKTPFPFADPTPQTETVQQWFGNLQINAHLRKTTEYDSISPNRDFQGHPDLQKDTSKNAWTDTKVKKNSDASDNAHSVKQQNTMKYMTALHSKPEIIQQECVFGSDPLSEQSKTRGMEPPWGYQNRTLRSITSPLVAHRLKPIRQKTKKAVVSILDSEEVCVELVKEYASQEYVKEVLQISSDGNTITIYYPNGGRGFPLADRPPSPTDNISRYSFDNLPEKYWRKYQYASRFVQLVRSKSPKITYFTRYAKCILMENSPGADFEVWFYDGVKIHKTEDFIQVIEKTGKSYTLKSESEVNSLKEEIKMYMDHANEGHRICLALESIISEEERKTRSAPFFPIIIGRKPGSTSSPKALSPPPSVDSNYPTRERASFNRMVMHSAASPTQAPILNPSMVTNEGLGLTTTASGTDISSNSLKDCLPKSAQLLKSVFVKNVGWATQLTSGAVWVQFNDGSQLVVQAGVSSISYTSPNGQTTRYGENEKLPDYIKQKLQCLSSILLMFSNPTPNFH
STK17A, sequence (Q9UEE5 whole entry): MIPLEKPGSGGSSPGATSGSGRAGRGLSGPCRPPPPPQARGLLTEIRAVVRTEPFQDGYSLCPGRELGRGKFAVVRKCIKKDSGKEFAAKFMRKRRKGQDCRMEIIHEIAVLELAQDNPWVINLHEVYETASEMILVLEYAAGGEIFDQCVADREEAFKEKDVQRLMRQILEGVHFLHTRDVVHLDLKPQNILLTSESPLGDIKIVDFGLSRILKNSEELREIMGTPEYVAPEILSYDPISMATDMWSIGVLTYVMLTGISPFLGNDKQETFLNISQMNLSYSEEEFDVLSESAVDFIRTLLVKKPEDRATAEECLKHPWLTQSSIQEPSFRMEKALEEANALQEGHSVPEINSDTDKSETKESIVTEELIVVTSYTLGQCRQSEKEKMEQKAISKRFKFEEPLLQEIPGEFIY
BMPR1A, sequence (P36894 whole entry): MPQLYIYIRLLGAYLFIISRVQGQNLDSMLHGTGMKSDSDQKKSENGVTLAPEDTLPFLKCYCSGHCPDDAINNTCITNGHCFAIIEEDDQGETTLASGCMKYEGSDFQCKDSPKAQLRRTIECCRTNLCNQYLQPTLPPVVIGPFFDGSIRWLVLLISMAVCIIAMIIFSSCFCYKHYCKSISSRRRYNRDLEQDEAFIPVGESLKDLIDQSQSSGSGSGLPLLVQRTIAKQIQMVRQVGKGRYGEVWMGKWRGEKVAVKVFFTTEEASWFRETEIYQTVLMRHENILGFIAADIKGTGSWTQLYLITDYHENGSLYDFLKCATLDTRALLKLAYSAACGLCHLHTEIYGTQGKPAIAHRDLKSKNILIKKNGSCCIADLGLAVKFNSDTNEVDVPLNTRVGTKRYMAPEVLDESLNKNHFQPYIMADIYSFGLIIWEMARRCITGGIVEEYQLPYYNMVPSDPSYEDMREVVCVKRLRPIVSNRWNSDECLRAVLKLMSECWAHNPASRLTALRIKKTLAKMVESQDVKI
AXL, sequence (P30530 whole entry): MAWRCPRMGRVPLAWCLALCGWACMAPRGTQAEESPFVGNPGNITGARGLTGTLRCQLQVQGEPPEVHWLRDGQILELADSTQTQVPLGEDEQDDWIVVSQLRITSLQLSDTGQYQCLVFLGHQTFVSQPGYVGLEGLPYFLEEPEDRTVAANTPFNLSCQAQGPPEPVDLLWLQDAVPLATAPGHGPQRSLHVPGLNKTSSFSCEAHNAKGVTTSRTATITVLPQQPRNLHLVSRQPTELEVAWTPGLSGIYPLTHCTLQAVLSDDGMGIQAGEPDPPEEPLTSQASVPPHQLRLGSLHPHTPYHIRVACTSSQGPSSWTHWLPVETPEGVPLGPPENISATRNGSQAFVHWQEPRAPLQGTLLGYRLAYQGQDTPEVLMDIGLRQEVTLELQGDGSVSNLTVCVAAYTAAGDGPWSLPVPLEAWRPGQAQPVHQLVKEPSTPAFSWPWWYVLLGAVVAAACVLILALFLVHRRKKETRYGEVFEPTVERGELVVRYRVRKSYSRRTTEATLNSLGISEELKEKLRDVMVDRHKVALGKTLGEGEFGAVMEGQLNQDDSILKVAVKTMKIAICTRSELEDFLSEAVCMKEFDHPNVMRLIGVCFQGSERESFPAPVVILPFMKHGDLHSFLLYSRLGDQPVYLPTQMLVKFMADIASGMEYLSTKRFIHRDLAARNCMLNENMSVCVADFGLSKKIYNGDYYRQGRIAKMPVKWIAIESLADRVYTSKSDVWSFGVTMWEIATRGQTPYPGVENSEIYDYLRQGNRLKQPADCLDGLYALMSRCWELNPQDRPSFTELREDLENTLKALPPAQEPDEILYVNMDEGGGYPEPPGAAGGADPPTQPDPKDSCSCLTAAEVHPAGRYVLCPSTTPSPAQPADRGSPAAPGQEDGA
MAPK8, sequence (P45983 whole entry): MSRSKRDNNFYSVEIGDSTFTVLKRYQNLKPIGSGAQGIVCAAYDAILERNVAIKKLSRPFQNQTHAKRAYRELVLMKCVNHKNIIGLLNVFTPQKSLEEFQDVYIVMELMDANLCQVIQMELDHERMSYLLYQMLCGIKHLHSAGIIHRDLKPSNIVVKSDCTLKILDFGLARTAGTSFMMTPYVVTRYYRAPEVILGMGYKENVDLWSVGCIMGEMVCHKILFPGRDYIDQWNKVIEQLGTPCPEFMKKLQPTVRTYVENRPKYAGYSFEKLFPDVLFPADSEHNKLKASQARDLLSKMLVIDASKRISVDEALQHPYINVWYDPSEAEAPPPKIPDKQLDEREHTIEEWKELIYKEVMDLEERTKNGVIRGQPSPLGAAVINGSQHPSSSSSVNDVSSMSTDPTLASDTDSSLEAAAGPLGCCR

apparent dissociation constant (-log10 M) (PIK3C2A) | apparent dissociation constant (-log10 M) (TGFBR2) | apparent dissociation constant (-log10 M) (EPHA5) | apparent dissociation constant (-log10 M) (BRSK2) | apparent dissociation constant (-log10 M) (PIK3C3) | apparent dissociation constant (-log10 M) (PLK1) | apparent dissociation constant (-log10 M) (PLK4) | apparent dissociation constant (-log10 M) (AXL) | apparent dissociation constant (-log10 M) (MARK2) | apparent dissociation constant (-log10 M) (BRSK1) | apparent dissociation constant (-log10 M) (FYN) | apparent dissociation constant (-log10 M) (PRKCI) | apparent dissociation constant (-log10 M) (CSNK1E) | apparent dissociation constant (-log10 M) (FER) | apparent dissociation constant (-log10 M) (MAPK8) | apparent dissociation constant (-log10 M) (PRKDC) | apparent dissociation constant (-log10 M) (PIM3) | apparent dissociation constant (-log10 M) (HIPK1) | apparent dissociation constant (-log10 M) (BMPR1A) | apparent dissociation constant (-log10 M) (MAPK1) | apparent dissociation constant (-log10 M) (RPS6KA1) | apparent dissociation constant (-log10 M) (ULK1) | apparent dissociation constant (-log10 M) (STK17A) | apparent dissociation constant (-log10 M) (STK38) | apparent dissociation constant (-log10 M) (EIF2AK1) | apparent dissociation constant (-log10 M) (GSK3B) | apparent dissociation constant (-log10 M) (CRKRS) | apparent dissociation constant (-log10 M) (SIK2) | apparent dissociation constant (-log10 M) (MELK) | apparent dissociation constant (-log10 M) (PIM2) | apparent dissociation constant (-log10 M) (MAP3K3) | apparent dissociation constant (-log10 M) (PRKCD) | apparent dissociation constant (-log10 M) (DDR1) | Compound
< 6 | < 6 | < 6 | < 6 | < 6 | < 6 | < 6 | < 6 | < 6 | < 6 | < 6 | < 6 | < 6 | < 6 | < 6 | 6.18 | < 6 | < 6 | < 6 | < 6 | < 6 | < 6 | < 6 | < 6 | < 6 | < 6 | < 6 | < 6 | < 6 | < 6 | < 6 | < 6 | < 6 | COc1ccc(-c2ccc3c(N4CCOC[C@@H]4C)nc(N4CCOC[C@@H]4C)nc3n2)cc1CO [AZD8055]
< 6 | < 6 | < 6 | < 6 | < 6 | < 6 | < 6 | < 6 | < 6 | < 6 | < 6 | < 6 | < 6 | < 6 | < 6 | < 6 | < 6 | < 6 | < 6 | < 6 | < 6 | < 6 | < 6 | < 6 | < 6 | < 6 | < 6 | < 6 | < 6 | < 6 | < 6 | < 6 | < 6 | CCNC(=O)Nc1ccc(-c2nc(N3CCOC[C@@H]3C)c3c(n2)C(C)(C)S(=O)(=O)C3)cc1 [CZ415]
